# Measured values as given in patent US6235717A, “Pharmaceutical compounds” (Glaxo Wellcome Inc., priority 1993, dated 2001).
# Non-standard residues stand in square brackets, D forms with d. Residues, ends and D or L forms follow the SMILES beside them. ξ: configuration not given here. *: point of attachment. Phe(4-Br) = N[CH](Cc1ccc(Br)cc1)C(=O)O; Phe(4-I) = N[C@@H](Cc1ccc(I)cc1)C(=O)O; 1Nal = N[C@@H](Cc1cccc2ccccc12)C(=O)O; Bta = N[C@@H](Cc1csc2ccccc12)C(=O)O; ξW = NC(Cc1c[nH]c2ccccc12)C(=O)O; MeOSuc = COC(=O)CCC(=O)*; Cbz = O=C(OCc1ccccc1)*; Pentanoyl = CCCCC(=O)*; Bn = c1ccc(C*)cc1; OtBu = CC(C)(C)O*
# Target: endothelin converting enzyme (ECE) (Sus scrofa, UniProt F1SU04)
# Assay: "ECE" assay with porcine aortic "ECE" prep, fluorogenic substrate Suc-Ile-Ile-Trp-MCA
# Assay type: biochemical
# Conditions: pH 7
# Experimental: IC50 values were determined as follows:
# Porcine Aortic "ECE" Prep
# Porcine aortas (22-25) were obtained fresh from a local slaughterhouse and delivered in cold PBS on ice. The aortas were cut open, rinsed with cold PBS and the endothelial cell layer scraped into cold PBS using a scalpel. The endothelial cells were pelleted by centrifugation, rinsed once with cold PBS, and repelleted. The pellet was lysed by addition of 10 volumes of 10 mM Tris-HCl, pH 7.0, containing protease inhibitors and DTS, followed by brief sonication and homogenization. The lysate was centrifuged at 100,000 g for 1 hour and the supernatant applied to a MONOQ FPLC anion exchange column equilibrated in 10 mM Tris-HCl, pH 7.0 (buffer A) which was then developed with an increasing gradient of NaCl in buffer A. The active fractions were aliquoted and stored at -70° C.
# The ECE assay was performed in 96-well microplates in a total volume of 200μ/well. The assay cocktail contains 100 mM Tris-HCl, pH 7.0, 20 mM CaCl2, 80 μM substrate (Suc-Ile-Ile-Trp-MCA), enzyme and test compounds. The test compounds were preincubated with the enzyme for 15-20 minutes before initiation of the assay by addition of the substrate. The assay was incubated overnight at 37° C. and the fluorescence intensity caused by the release of AMC was determined using a fluorescence microplate reader (EX360 nm/EM460 nm). IC50 values for compounds were determined by constructing concentration-effect curves for the inhibition of enzyme activity. Concentrations on the linear portion of the inhibition curve were used to determine the IC50 utilizing a Hill plot.
# endothelin converting enzyme (ECE), sequence (F1SU04 entry or part of it): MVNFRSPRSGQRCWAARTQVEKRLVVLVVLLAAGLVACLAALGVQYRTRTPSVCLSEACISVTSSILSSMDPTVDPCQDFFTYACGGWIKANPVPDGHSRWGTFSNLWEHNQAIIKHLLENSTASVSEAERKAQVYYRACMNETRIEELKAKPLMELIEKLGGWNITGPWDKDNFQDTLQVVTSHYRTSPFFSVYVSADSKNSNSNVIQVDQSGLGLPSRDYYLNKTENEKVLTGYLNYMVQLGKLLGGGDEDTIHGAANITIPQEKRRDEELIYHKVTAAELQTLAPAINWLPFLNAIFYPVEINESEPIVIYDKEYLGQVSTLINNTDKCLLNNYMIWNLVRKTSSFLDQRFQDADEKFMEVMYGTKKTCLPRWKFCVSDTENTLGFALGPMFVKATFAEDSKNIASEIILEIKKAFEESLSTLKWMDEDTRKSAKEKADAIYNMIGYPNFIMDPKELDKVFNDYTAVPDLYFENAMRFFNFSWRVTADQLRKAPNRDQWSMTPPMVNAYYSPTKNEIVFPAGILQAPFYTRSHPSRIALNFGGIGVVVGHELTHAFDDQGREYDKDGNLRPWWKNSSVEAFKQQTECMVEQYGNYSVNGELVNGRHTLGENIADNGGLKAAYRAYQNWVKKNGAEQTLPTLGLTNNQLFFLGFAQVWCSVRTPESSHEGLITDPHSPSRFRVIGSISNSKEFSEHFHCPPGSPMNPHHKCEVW
row,Compound,IC50
1,"O=C[C@H](Cc1c[nH]c2ccccc12)NC(=O)[C@H](Cc1cccc2ccccc12)NC(=O)[C@H](Cc1ccc(I)cc1)NC(=O)OCc1ccccc1 [Example 40, N-Benzyloxycarbonyl-S-p-iodophenylalanyl-S-1'naphthylalanyl-1-S-formyl-1-(1H-indol-3-yl-methyl)-methylamide] (Cbz-[Phe(4-I)]-[1Nal]-Trp-aldehyde)",10 nM

# Same assay, conditions: porcine aortic endothelial cell ECE prep; 80 μM Suc-Ile-Ile-Trp-MCA; 15-20 min preincubation; overnight at 37° C.; pH 7.0; AMC fluorescence
row,Compound,IC50
1,"CCOc1ccc(CC(NC(=O)C(Cc2ccc(OCc3ccccc3)cc2)NC(=O)OCc2ccccc2)C(=O)NC(C=O)Cc2ccc(Br)cc2)cc1 (stereo not drawn) [Example 99, N-Benzyloxycarbonyl-S-(O-benzyl)tyrosyl-S-(O-ethyl)tyrosyl-1-S-formyl-1-(4-bromophenylmethyl)-methylamide] (Cbz-Tyr(Bn)-Tyr(Et)-[Phe(4-Br)]-aldehyde; configuration not given here)",20 nM
2,"[[5-(hexahydro-2-oxo-1H-thieno[3,4-d]imidazol-4-yl]valeryl-L-isoleucyl-L-isoleucine-L-N-[1-dimethoxymethyl]2-(1H-indol-3-yl)ethyl]amide [Example 62]",2000 nM
3,"N-[[5-(hexahydro-2-oxo-1H-thieno[3,4-d]imidazol-4-yl]valeryl-L-isoleucyl-L- isoleucine-L-N-[1-formyl]2-(1H-indol-3-yl)ethyl]amide [Example 63]",30 nM
4,N-Benzyloxycarbonyl-S-tryptophanyl-S-2'naphthylalanyl-1-S-formyl-1-(1H-indol-3-yl-methyl)-methylamide [Example 35],30 nM
5,CC[C@H](C)[C@H](NC(=O)OCc1ccccc1)C(=O)N[C@H](C(=O)N[C@H](CNC(=O)CN1C(=O)C=CC1=O)Cc1c[nH]c2ccccc12)[C@@H](C)CC [Example 84],1000 nM
6,CC[C@H](C)[C@H](NC(=O)CCC(=O)OC)C(=O)N[C@H](C(=O)NC(Cc1c[nH]c2ccccc12)C(OC)OC)[C@@H](C)CC (stereo partly drawn) [Example 73],8000 nM
7,"O=CC(Cc1c[nH]c2ccccc12)NC(=O)[C@H](Cc1cccc2ccccc12)NC(=O)[C@H](Cc1c[nH]c2ccccc12)NC(=O)OCc1ccccc1 (stereo partly drawn) [Example 34, N-Benzyloxycarbonyl-S-tryptophanyl-S-1'naphthylalanyl-1-S-formyl-1-(1H-indol-3-yl-methyl)-methylamide] (Cbz-Trp-[1Nal]-[ξW]-aldehyde)",8 nM
8,"CC[C@H](C)[C@H](NC(=O)OCc1ccccc1)C(=O)N[C@H](C(=O)N[C@H](C=O)Cc1csc2ccccc12)[C@@H](C)CC [Example 18, N-Benzyloxycarbonyl-S-isoleucyl-S-isoleucine 1-S-formyl-2-(benzo-thien-3-yl)ethylamide] (Cbz-Ile-Ile-[Bta]-aldehyde)",600 nM
9,N-Benzyloxycarbonyl-L-isoleucyl-L-isoleucine-L-N-[1pyruvoyl]2-(phenyl)ethyl]amide [Example 52],2000 nM
10,"NC(=O)NN=CC(Cc1c[nH]c2ccccc12)NC(=O)[C@H](Cc1c[nH]c2ccccc12)NC(=O)[C@H](Cc1c[nH]c2ccccc12)NC(=O)CCCCCNC(=O)CCCCC1SCC2NC(=O)NC21 (stereo partly drawn) [Example 87, N-[[[5-(hexahydro-2-oxo-1H-thieno[3,4-d]imidazol-4-yl)valeramido]hexanoyl]-L-tryptophanyl-L-tryptophan-L-N-[1-semicarbazonomethyl]2-(1H-indol-3-yl)ethyl]amide]",60 nM
11,"CC[C@H](C)[C@H](NC(=O)OCc1ccccc1)C(=O)N[C@H](C(=O)NC(Cc1ccccc1)C(=O)C(=O)C(=O)OC)[C@@H](C)CC (stereo partly drawn) [Example 96, N-[(benzyloxy)carbonyl]-L-isoleucyl-L-isoleucine-L-N-[1-(3-methoxycarbonyloxalyl]2-(phenyl)ethyl]amide]",10000 nM
12,"C[C@H](NC(=O)OCc1ccccc1)C(=O)N[C@@H](Cc1ccccc1)C(=O)N[C@H](C=O)Cc1c[nH]c2ccccc12 [Example 26, N-Benzyloxycarbonyl-S-alanyl-S-phenylalanyl-1-S-formyl-1-(1H-indol-3-yl-methyl)-methylamide] (Cbz-Ala-Phe-Trp-aldehyde)",1500 nM
13,"CCC(C)C(C=O)NC(=O)C(NC(=O)C(NC(=O)OCc1ccccc1)C(C)CC)C(C)CC [Example 22, N-Benzyloxycarbonyl-S-isoleucyl-S-isoleucyl-1-S-formyl-1-(S)-1-methylpropyl)-methylamide] (Cbz-Ile-Ile-Ile-aldehyde; configuration not given here)",4000 nM
14,CCCCC(=O)N[C@H](C(=O)N[C@H](C(=O)NC(C=O)Cc1c[nH]c2ccccc12)[C@@H](C)CC)[C@@H](C)CC (stereo partly drawn) [Example 72] (Pentanoyl-Ile-Ile-[ξW]-aldehyde),150 nM
15,"CC[C@H](C)[C@H](NC(=O)OCc1ccccc1)C(=O)N[C@H](C(=O)NC(C=NNC(N)=O)Cc1c[nH]c2ccccc12)[C@@H](C)CC (stereo partly drawn) [Example 56, N-Benzyloxycarbonyl-L-isoleucyl-L-isoleucine-L-N-[1[semicarbazonomethyl]2-(1H-indol-3-yl)ethyl]amide]",10000 nM
16,N-(3-Phenylpropionyl)-L-isoleucyl-L_isoleucine-L-N-[1-formyl]2-(1H-indol-3- yl)ethyl]amide [Example 59],100 nM

row,Compound,IC50
1,CC[C@H](C)[C@H](NC(=O)OCc1ccccc1)C(=O)N[C@H](C(=O)NC(Cc1ccccc1)C(=O)C(=O)O)[C@@H](C)CC (stereo partly drawn) [Example 88],600 nM
2,N-[12-[(benzyloxy)acetamido]dodecanoyl]--L-isoleucyl-L-isoleucine-L-N-[1-formyl]2-(1H-indol-3-yl)ethyl]amide [Example 79],60 nM
3,N-(benzyloxy)carbonyl-L-isoleucyl-L-isoleucine-L-N[1-[[(5-nitro-2-pyridyl)dithio]methyl]-2-(1H-indol-3-yl)ethyl]amide [Example 57],1000 nM
4,N-Benzyloxycarbonyl-S-p-bromophenylalanyl-S-2'naphthylalanyl-1-S-formyl-1-(1H-indol-3-yl-methyl)-methylamide [Example 38],8 nM
5,N-Benzloxycarbonyl-L-isoleucyl-L-isoleucine-L-N-[1-ethoxalyl]2-(phenyl)ethyl]amide [Example 53],10000 nM
6,NC(=O)NN=CC(Cc1c[nH]c2ccccc12)NC(=O)[C@H](Cc1c[nH]c2ccccc12)NC(=O)[C@H](Cc1c[nH]c2ccccc12)NC(=O)OCc1ccccc1 (stereo partly drawn) [Example 75],40 nM
7,CC[C@H](C)[C@H](NC(=O)CCC(=O)OC)C(=O)N[C@H](C(=O)NC(C=O)Cc1c[nH]c2ccccc12)[C@@H](C)CC (stereo partly drawn) [Example 74] (MeOSuc-Ile-Ile-[ξW]-aldehyde),80 nM
8,"CC[C@H](C)[C@H](NC(=O)[C@H](Cc1ccccc1)NC(=O)OCc1ccccc1)C(=O)N[C@H](C=O)Cc1c[nH]c2ccccc12 [Example 25, N-Benzyloxycarbonyl-S-phenylalanyl-S-isoleucyl-1-S-formyl-1-(1H-indol-3-yl-methyl)-methylamide] (Cbz-Phe-Ile-Trp-aldehyde)",300 nM
9,"O=C[C@H](Cc1c[nH]c2ccccc12)NC(=O)[C@H](Cc1ccc(OCc2ccccc2)cc1)NC(=O)[C@H](Cc1ccc(Br)cc1)NC(=O)OCc1ccccc1 [Example 19, N-Benzyloxycarbonyl-S-p-bromophenylalnyl-S-(O-benzyl)tyrosyl-1-S-formyl-1-(1H-indol-3-yl-methyl)-methylamide] (Cbz-[Phe(4-Br)]-Tyr(Bn)-Trp-aldehyde)",10 nM
10,CC[C@H](C)[C@H](NC(=O)OCc1cccnc1)C(=O)N[C@H](C(=O)N[C@H](C=O)Cc1c[nH]c2ccccc12)[C@@H](C)CC [Example 81],200 nM
11,CC[C@H](C)[C@H](NC(=O)CCCCCNC(=O)CCCCCNC(=O)CC1NC(=O)NC1=O)C(=O)N[C@H](C(=O)NC(C=O)Cc1c[nH]c2ccccc12)[C@@H](C)CC (stereo partly drawn) [Example 70],80 nM
12,"CC[C@H](C)[C@H](NC(=O)OCc1ccccc1)C(=O)N[C@H](C(=O)NC(Cc1c[nH]c2ccccc12)CN1C(=O)C=CC1=O)[C@@H](C)CC (stereo partly drawn) [Example 95, N-[(benzyloxy)carbonyl]-L-isoleucyl-L-isoleucine-L-N-[1-(N-maleimidomethyl)-2-(1H-indol-3-yl)ethyl]amide]",1000 nM
13,CC[C@H](C)[C@H](NC(=O)[C@@H](NC(=O)OCc1ccccc1)C(C)C)C(=O)NC(C=O)Cc1c[nH]c2ccccc12 (stereo partly drawn) [Example 24] (Cbz-Val-Ile-[ξW]-aldehyde),1500 nM
14,O=C(N[C@@H](Cc1ccc(Br)cc1)C(=O)N[C@@H](Cc1cccc2ccccc12)C(=O)NC(Cc1ccccc1)C(=O)C1CO1)OCc1ccccc1 (stereo partly drawn) [Example 94],6 nM
15,CC[C@H](C)[C@H](NC(=O)[C@H](CC(=O)OC(C)(C)C)NC(=O)OCc1ccccc1)C(=O)N[C@H](C(=O)N[C@H](C=O)Cc1c[nH]c2ccccc12)[C@@H](C)CC [Example 64] (Cbz-D(OtBu)IIW-aldehyde),60 nM
16,CC[C@H](C)[C@H](NC(=O)CC(c1ccccc1)c1ccccc1)C(=O)N[C@H](C(=O)NC(C=O)Cc1c[nH]c2ccccc12)[C@@H](C)CC (stereo partly drawn) [Example 58],100 nM
